Where “and” joins values, the source holds several entries; their conditions need not be identical. Equal values may be shown once.
Tests used:
human DGAT1 = target: T1, human DGAT1 (Homo sapiens, UniProt O75907); assay: DGAT Scintillation Proximity Assay (SPA) with membranes of insect cells expressing human flagtag DGAT1; format: biochemical; settings: read-out: hDGAT1 IC50
T1 construct: made in house; host or cells: insect cells (sf9, sf21 or High Five) infected with baculovirus; total cell membranes
T1 sequence (O75907 1-488): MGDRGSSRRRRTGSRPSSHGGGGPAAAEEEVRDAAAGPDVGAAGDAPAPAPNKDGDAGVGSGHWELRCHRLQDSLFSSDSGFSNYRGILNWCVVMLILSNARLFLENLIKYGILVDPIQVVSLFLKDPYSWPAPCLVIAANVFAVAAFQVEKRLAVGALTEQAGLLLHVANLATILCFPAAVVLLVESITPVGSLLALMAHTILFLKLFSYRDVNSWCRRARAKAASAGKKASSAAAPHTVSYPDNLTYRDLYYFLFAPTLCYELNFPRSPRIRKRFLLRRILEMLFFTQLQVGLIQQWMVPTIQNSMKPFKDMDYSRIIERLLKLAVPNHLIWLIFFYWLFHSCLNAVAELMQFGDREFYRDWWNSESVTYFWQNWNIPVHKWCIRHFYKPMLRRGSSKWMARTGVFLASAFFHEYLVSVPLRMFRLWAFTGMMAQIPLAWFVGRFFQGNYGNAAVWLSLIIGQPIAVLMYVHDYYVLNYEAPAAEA
Method in brief: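 Membranes (0.2 μg/well) from insect cells expressing human flag-tagged DGAT1 incubated with 10 μM compound and 200 μM dioleoyl glycerol substrate; mercuric chloride as inhibition control. Reaction stopped with WGA SPA beads in mercuric chloride, overnight bead coupling, then scintillation proximity signal read.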

Row | IC50 (human DGAT1) [nM] | melting point | Structure (SMILES)
1 | 10 to 100 | 180 to 182 °C | CCCNC(=O)N1CCN(C[C@H]2CC[C@H](c3ccc(C4=Nc5c(N)ncnc5OC4(C)C)cc3)CC2)CC1 [Example 2-245]
2 | 10 to 100 | 158 to 160 °C | CC1(C)Oc2ncnc(N)c2N=C1c1ccc([C@H]2CC[C@H](CN3CCN(C(N)=O)CC3)CC2)cc1 [Example 2-246]
3 | 10 to 100 | 205 to 206 °C | CC1(C)Oc2ncnc(N)c2N=C1c1ccc([C@H]2CC[C@H](CN3CCN(C(=O)CO)CC3)CC2)cc1 [Example 2-247]
4 | 10 to 100 | 207 to 208 °C | CC(C)(O)C(=O)N1CCN(C[C@H]2CC[C@H](c3ccc(C4=Nc5c(N)ncnc5OC4(C)C)cc3)CC2)CC1 [Example 2-248]
5 | 10 to 100 | 202 to 203 °C | CC(=O)N1CCN(C[C@H]2CC[C@H](c3ccc(C4=Nc5c(N)ncnc5OC4(C)C)cc3)CC2)CC1 [Example 2-249]
6 | 10 to 100 | 220 to 240 °C | CC1(C)Oc2ncnc(N)c2N=C1c1ccc([C@H]2CC[C@H](C(=O)N3C[C@@H](O)[C@@H](O)C3)CC2)cc1 [Example 2-250]
7 | 10 to 100 | 159 to 164 °C | CC1(C)Oc2ncnc(N)c2N=C1c1ccc([C@H]2CC[C@H](CN3CCC(C(N)=O)CC3)CC2)cc1 [Example 2-251]
8 | 10 to 100 | 209 to 211 °C | CCNS(=O)(=O)C[C@H]1CC[C@H](c2ccc(C3=Nc4c(N)ncnc4OC3(C)C)cc2)CC1 [Example 2-252]
9 | < 10 | 248 °C (dec.) | CC1(C)Oc2ncnc(N)c2N=C1c1ccc([C@H]2CC[C@H](CSCC(=O)O)CC2)cc1 [Example 2-253]
10 | 10 to 100 | 213 to 214 °C | CC1(C)Oc2ncnc(N)c2N=C1c1ccc([C@H]2CC[C@H](C(=O)CO)CC2)cc1 [Example 2-254]
11 | 10 to 100 | > 250 °C | Cc1nc(N)c2c(n1)OC(C)(C)C(c1ccc([C@H]3CC[C@H](C(=O)O)CC3)cc1)=N2 [Example 2-255]
12 | 10 to 100 | 172 to 175 °C | Cc1nc(N)c2c(n1)OC(C)(C)C(c1ccc([C@H]3CC[C@H](C(=O)NS(C)(=O)=O)CC3)cc1)=N2 [Example 2-256]
13 | 10 to 100 | 220 to 225 °C | Cc1nc(N)c2c(n1)OC(C)(C)C(c1ccc([C@H]3CC[C@H](C(=O)NC(C)(C)CO)CC3)cc1)=N2 [Example 2-257]
14 | 10 to 100 | > 250 °C | Cc1nc(N)c2c(n1)OC(C)(C)C(c1ccc([C@H]3CC[C@H](C(=O)N4C[C@@H](O)[C@@H](O)C4)CC3)cc1)=N2 [Example 2-258]
15 | 10 to 100 | 271 to 277 °C | Cc1nc(N)c2c(n1)OC(C)(C)C(c1ccc([C@H]3CC[C@H](CSCC(=O)O)CC3)cc1)=N2 [Example 2-259]
16 | 10 to 100 | 235 to 239 °C | Cc1nc(N)c2c(n1)OC(C)(C)C(c1ccc([C@H]3CC[C@H](CSC(C)(C)C(=O)O)CC3)cc1)=N2 [Example 2-260]
17 | 10 to 100 | 225 to 227 °C | Cc1nc(N)c2c(n1)OC(C)(C)C(c1ccc([C@H]3CC[C@H](CS(=O)(=O)CC(=O)O)CC3)cc1)=N2 [Example 2-261]
18 | 10 to 100 | > 166 °C | Cc1nc(N)c2c(n1)OC(C)(C)C(c1ccc([C@H]3CC[C@H](C[S+]([O-])CC(=O)O)CC3)cc1)=N2 (some centres unmarked) [Example 2-262]
19 | < 10 | > 250 °C | Cc1nc(N)c2c(n1)OC(C)(C)C(c1ccc([C@H]3CC[C@H](c4nn[nH]n4)CC3)cc1)=N2 [Example 2-263]
20 | 10 to 100 | > 250 °C | Cc1nc(N)c2c(n1)OC(C)(C)C(c1ccc([C@H]3CC[C@H](C(=O)Nc4nn[nH]n4)CC3)cc1)=N2 [Example 2-264]

Row | IC50 (human DGAT1) [nM] | melting point | Structure (SMILES)
21 | > 100 | 232 to 237 °C | CC(=O)N1CCC(c2ccc(C3=Nc4c(N)ncnc4OC3(C)C)cc2)CC1 [Example 3-3]
22 | 10 to 100 | 188 to 190 °C and 188.8 to 190.9 °C | CC1(C)Oc2ncnc(N)c2N=C1c1ccc(C2CCN(C(=O)C(=O)O)CC2)cc1 [Example 3]
23 | > 100 | 176 to 177 °C | CCOC(=O)C1CCN(c2ccc(C3=Nc4c(N)ncnc4OC3(C)C)cc2)CC1 [Example 4-3]
24 | 10 to 100 | > 240 °C | CC1(C)Oc2ncnc(N)c2N=C1c1ccc(N2CCC(C(=O)O)CC2)cc1 [Example 4-4]
25 | > 100 | 174 to 175 °C | CCOC(=O)N1CCN(c2ccc(C3=Nc4c(N)ncnc4OC3(C)C)cc2)CC1 [Example 4-5]
26 | > 100 | 191 to 196 °C | CC1(C)Oc2ncnc(N)c2N=C1c1ccc(N2CCCC2)cc1 [Example 4-6]
27 | > 100 | 130 to 131 °C | CC1(C)Oc2ncnc(N)c2N=C1c1cccc(OCc2ccccc2)c1 [Example 5-2]
28 | > 100 | 151 to 152 °C | CC1(C)Oc2ncnc(N)c2N=C1c1cccc(OCC2CCCCC2)c1 [Example 5-3]
29 | > 100 | 117 to 133 °C and 117.2 to 133.4 °C | CC1(C)Oc2ncnc(N)c2N=C1c1cccc(Cl)c1 [Example 5]
30 | 10 to 100 | 229 to 232 °C | Cc1nc(N)c2c(n1)OC(C)(C)C(c1ccc([C@H]3CC[C@H](CNC(=O)CO)CC3)c(Cl)c1)=N2 [Example 6-2]
31 | 10 to 100 | 280 °C (dec.) | Cc1nc(N)c2c(n1)OC(C)(C)C(c1ccc([C@H]3CC[C@H](CC(=O)O)CC3)c(N)c1)=N2 [Example 6-3]
32 | > 100 | 177 °C (dec.) | Cc1nc(N)c2c(n1)OC(C)(C)C(c1ccc([C@H]3CC[C@H](CC(=O)O)CC3)c(N3CCCC3=O)c1)=N2 [Example 6-4]
33 | 10 to 100 | 224 to 225 °C | CCOc1cc(C2=Nc3c(N)nc(C)nc3OC2(C)C)ccc1[C@H]1CC[C@H](CC(=O)O)CC1 [Example 6-8]
34 | < 10 | > 269 °C | Cc1nc(N)c2c(n1)OC(C)(C)C(c1ccc([C@H]3CC[C@H](CC(=O)O)CC3)c(F)c1)=N2 [Example 6-9]
35 | 10 to 100 | 212 to 214 °C | Cc1nc(N)c2c(n1)OC(C)(C)C(c1ccc([C@H]3CC[C@H](CNC(=O)CO)CC3)c(F)c1)=N2 [Example 6-10]
36 | 10 to 100 | > 282 °C | Cc1nc(N)c2c(n1)OC(C)(C)C(c1ccc([C@H]3CC[C@H](Cc4noc(=O)[nH]4)CC3)c(F)c1)=N2 [Example 6-11]
37 | < 10 | 171 to 173 °C | Cc1nc(N)c2c(n1)OC(C)(C)C(c1ccc([C@H]3CC[C@H](Cc4cc(O)[nH]n4)CC3)c(Cl)c1)=N2 [Example 6-12]
38 | < 10 | > 250 °C | CCNC(=O)NC[C@H]1CC[C@H](c2ccc(C3=Nc4c(N)nc(C)nc4OC3(C)C)cc2Cl)CC1 [Example 6-13]
39 | 10 to 100 | 205 to 209 °C | Cc1nc(N)c2c(n1)OC(C)(C)C(c1ccc([C@H]3CC[C@H](CNC(=O)OCC(C)C)CC3)c(Cl)c1)=N2 [Example 6-14]
40 | 10 to 100 | 225 to 228 °C | Cc1nc(N)c2c(n1)OC(C)(C)C(c1ccc([C@H]3CC[C@H](CNC(=O)N4CCOCC4)CC3)c(Cl)c1)=N2 [Example 6-15]

Reference: patent US7244727B2, “Fused bicyclic nitrogen-containing heterocycles” (Japan Tobacco Inc., priority 2002, dated 2007)
